Measurements published in US20160068861A1, “METHOD FOR DETECTING PROTEIN STABILITY AND USES THEREOF” (priority 2013, published 2016).

How the values were obtained:
CZ-1 cells = experiment: MTT detection of cell viability, BTZ-sensitive cell line; format: cell-based, human
Experimental: (§1) CZ-1 cells can be obtained from Hou Jian Laboratory of Shanghai Changzheng Hospital (Hou J, Lin F Y, Zhang B, Zhang L Z, Ding S Q, Establishment and biological characteristics of human multiple myeloma cell line CZ-1. Chinese Medical Journal [2004, 117(1):115-119]); CZ-1/R cell lines was constructed by the inventor's Laboratories, and can be obtained from the inventor's laboratory (http://www.sibcb.ac.cn/PI.asp?id=129).
(§2) Plates were incubated for 24-72 hours. To each well was added 20 ul MTT (3-(4,5-dimethyl-2-thiazole)-2,5-diphenyl tetrazolium bromide) solution, culture was continued for another 4 hrs. To each well was added 150 ul of dimethyl sulfoxide, shaken on a shaker at low speed for 10 mins for thoroughly dissolving the crystals. Absorbance of each well was measured on an enzyme-linked immune detector at OD 490 nm (570 nm).

CZ-1/R cells = experiment: MTT detection of cell viability, BTZ-resistant cell line; format: cell-based, human
Experimental: as §1, §2

[1] = BTZ in combination with 17-AAG, FIG. 9
[2] = BTZ in combination with C75, FIG. 9

Measured: killing effects (MTT)

CC(C)C[C@H](NC(=O)[C@H](Cc1ccccc1)NC(=O)c1cnccn1)B(O)O [BTZ, Bortezomib]
significant killing effects: CZ-1 cells; [1] | CZ-1 cells; [2] | CZ-1/R cells; [1] | CZ-1/R cells; [2]
